Here are results for ten compounds from PMC7531004, “Discovery of gramicidin A analogues with altered activities by multidimensional screening of a one-bead-one-compound library” (Nature Communications, 2020).

A word on the viability: it is a read-out of living cells in per cent, often relative to untreated cells.

For data set [1] the following is noted: cell viability/%. The method in brief: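 P388 cells at 1 × 10^4 cells/mL (final) were exposed to library peptides (stocks diluted 250-fold in RPMI1640/10% FBS) for 92 h at 37 °C, 5% CO2. Viable cells were counted by WST-1/1-methoxy PMS (4 h), absorbance 415 nm, and expressed as cell viability (%).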
The subject of data set [2] is Streptococcus pyogenes SSI-9. Kind of data set: Antibacterial activity assay of bead-derived peptides (three concentrations). The format is cell-based. On the set-up: key: +++: inhibition by the 640-fold diluted peptide solution; ++: inhibition by the 160-fold diluted solution; +: inhibition by the 40-fold diluted solution; -: no inhibition. Conditions: S. pyogenes, bead-derived peptide solution, three concentrations. The method in brief: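 Library peptide stock applied undiluted, 4-fold and 16-fold diluted in DMSO to S. pyogenes SSI-9 (2 × 10^5 CFU) in cation-adjusted Mueller Hinton broth with 5% laked horse blood. After 18 h at 37 °C, growth judged by visible cell precipitation.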

The nature of data set [3]: H+/Na+ transport assay of bead-derived peptides (one-point).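 Note: relative to parent gramicidin A activity set to 1.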 Also noted: key: relative activity; mean of two control wells = 1.00. Conditions: bead-derived peptide solution, EYPC/EYPG LUVs. The format is biochemical. The method in brief: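 H+/Na+ transport is monitored through pyranine fluorescence in freshly extruded LUVs after a 30-min room-temperature vortex with each library peptide at a single concentration. Signals are normalized to detergent (Triton X-100) and untreated controls.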

Molecules are shown by their SMILES. Where a SMILES comes first, the peptide text is derived from it. [ ]: non-standard residue; d: D form. The star is where a group is joined. NHCH2CH2OH = OCCN*; For = O=C*

`CC(C)C[C@@H](NC(=O)[C@H](C)NC(=O)CNC(=O)[C@@H](NC=O)C(C)C)C(=O)N[C@@H](C)C(=O)N[C@@H](C(=O)N[C@H](C(=O)N[C@@H](C(=O)N[C@@H](Cc1c[nH]c2ccccc12)C(=O)N[C@H](CC(C)C)C(=O)N[C@@H](Cc1c[nH]c2ccccc12)C(=O)N[C@H](CC(C)C)C(=O)N[C@@H](Cc1c[nH]c2ccccc12)C(=O)N[C@@H](C(=O)N[C@@H](Cc1c[nH]c2ccccc12)C(=O)NCCO)C(C)C)C(C)C)C(C)C)C(C)C` [compound 6345] (For-VGA[dL]A[dV]V[dV]W[dL]W[dL]W[dV]W-NHCH2CH2OH): the viability in data set [1] turned out to be 57.3%. Moreover, the antibacterial activity entry in data set [2] is listed as “++”. In addition, the “H+/Na+ transport activity normalized against the value of 1 (1.00)” value (shortened to “H+/Na+ transport activity normalized”) in data set [3] came to 1.13.

In turn, `CC(C)C[C@@H](NC(=O)[C@H](Cc1c[nH]c2ccccc12)NC(=O)[C@@H](CC(C)C)NC(=O)[C@@H](NC(=O)[C@H](NC(=O)[C@H](C)NC(=O)[C@H](NC(=O)[C@H](C)NC(=O)CNC(=O)[C@@H](NC=O)C(C)C)C(C)C)C(C)C)C(C)C)C(=O)N[C@@H](Cc1c[nH]c2ccccc12)C(=O)N[C@@H](C(=O)N[C@@H](Cc1c[nH]c2ccccc12)C(=O)N[C@@H](C(=O)N[C@@H](Cc1c[nH]c2ccccc12)C(=O)NCCO)C(C)C)[C@H](C)O` [compound 79] (For-VGA[dV]A[dV]V[dL]W[dL]W[dT]W[dV]W-NHCH2CH2OH) showed a viability in data set [1] of 100%. Further, the antibacterial activity entry in data set [2] is “++”. For the same compound, the “H+/Na+ transport activity normalized” value in data set [3] came to 1.14.

`CC(C)C[C@@H](NC(=O)[C@H](C)NC(=O)[C@H](NC(=O)[C@H](C)NC(=O)CNC(=O)[C@@H](NC=O)C(C)C)C(C)C)C(=O)N[C@H](C(=O)N[C@H](CC(C)C)C(=O)N[C@@H](Cc1c[nH]c2ccccc12)C(=O)N[C@@H](C(=O)N[C@@H](Cc1c[nH]c2ccccc12)C(=O)N[C@H](CC(C)C)C(=O)N[C@@H](Cc1c[nH]c2ccccc12)C(=O)N[C@@H](C(=O)N[C@@H](Cc1c[nH]c2ccccc12)C(=O)NCCO)[C@H](C)O)C(C)C)C(C)C` [compound 2895] (For-VGA[dV]A[dL]V[dL]W[dV]W[dL]W[dT]W-NHCH2CH2OH) had a viability in data set [1] of 95.1%. Also, in data set [2], the antibacterial activity entry is reported as “-”. Further, the “H+/Na+ transport activity normalized” value in data set [3] is given as 1.06.

On to `CC(C)C[C@@H](NC(=O)[C@H](C)NC(=O)[C@H](NC(=O)[C@H](C)NC(=O)CNC(=O)[C@@H](NC=O)C(C)C)[C@H](C)O)C(=O)N[C@H](C(=O)N[C@H](CC(C)C)C(=O)N[C@@H](Cc1c[nH]c2ccccc12)C(=O)N[C@H](CC(C)C)C(=O)N[C@@H](Cc1c[nH]c2ccccc12)C(=O)N[C@H](CC(C)C)C(=O)N[C@@H](Cc1c[nH]c2ccccc12)C(=O)N[C@@H](C(=O)N[C@@H](Cc1c[nH]c2ccccc12)C(=O)NCCO)C(C)C)C(C)C` [compound 3778] (For-VGA[dT]A[dL]V[dL]W[dL]W[dL]W[dV]W-NHCH2CH2OH), for which the viability in data set [1] was 100%. Further, the antibacterial activity entry in data set [2] was “-”. In addition, the “H+/Na+ transport activity normalized” value in data set [3] is reported as 1.08.

In the case of `CC(C)C[C@@H](NC(=O)[C@H](C)NC(=O)[C@H](NC(=O)[C@H](C)NC(=O)CNC(=O)[C@@H](NC=O)C(C)C)C(C)C)C(=O)N[C@H](C(=O)N[C@@H](C(=O)N[C@@H](Cc1c[nH]c2ccccc12)C(=O)N[C@@H](C(=O)N[C@@H](Cc1c[nH]c2ccccc12)C(=O)N[C@@H](C(=O)N[C@@H](Cc1c[nH]c2ccccc12)C(=O)N[C@@H](C(=O)N[C@@H](Cc1c[nH]c2ccccc12)C(=O)NCCO)C(C)C)[C@H](C)O)C(C)C)C(C)C)C(C)C` [compound 4258] (For-VGA[dV]A[dL]V[dV]W[dV]W[dT]W[dV]W-NHCH2CH2OH), the viability in data set [1] was 85.9%. In addition, the antibacterial activity entry in data set [2] is on record as “-”. Moreover, the “H+/Na+ transport activity normalized” value in data set [3] is on record as 1.00.

Turning to `CNC(=O)C[C@@H](NC(=O)[C@H](Cc1c[nH]c2ccccc12)NC(=O)[C@H](NC(=O)[C@H](Cc1c[nH]c2ccccc12)NC(=O)[C@@H](CC(C)C)NC(=O)[C@@H](NC(=O)[C@H](NC(=O)[C@H](C)NC(=O)[C@H](NC(=O)[C@H](C)NC(=O)CNC(=O)[C@@H](NC=O)C(C)C)C(C)C)C(C)C)C(C)C)C(C)C)C(=O)N[C@@H](Cc1c[nH]c2ccccc12)C(=O)N[C@@H](C(=O)N[C@@H](Cc1c[nH]c2ccccc12)C(=O)NCCO)C(C)C` [compound 3369] (For-VGA[dV]A[dV]V[dL]W[dV]W[dD](NHMe)W[dV]W-NHCH2CH2OH), in data set [1], the viability came out at 100%. Also, in data set [2], the antibacterial activity result is listed as “-”. Moreover, the “H+/Na+ transport activity normalized” value in data set [3] amounted to 1.00.

With `CNC(=O)C[C@@H](NC(=O)[C@H](Cc1c[nH]c2ccccc12)NC(=O)[C@H](NC(=O)[C@H](Cc1c[nH]c2ccccc12)NC(=O)[C@@H](CC(C)C)NC(=O)[C@H](Cc1c[nH]c2ccccc12)NC(=O)[C@@H](CC(C)C)NC(=O)[C@@H](NC(=O)[C@H](NC(=O)[C@H](C)NC(=O)[C@H](NC(=O)[C@H](C)NC(=O)CNC(=O)[C@@H](NC=O)C(C)C)C(C)C)C(C)C)C(C)C)C(C)C)C(=O)N[C@@H](Cc1c[nH]c2ccccc12)C(=O)NCCO` [compound 3903] (For-VGA[dV]A[dV]V[dL]W[dL]W[dV]W[dD](NHMe)W-NHCH2CH2OH), the viability in data set [1] amounted to 100%. Also, the antibacterial activity entry in data set [2] was “-”. For the same compound, in data set [3], the “H+/Na+ transport activity normalized” value is on record as 1.10.

On to `CC(C)C[C@@H](NC(=O)[C@H](C)NC(=O)CNC(=O)[C@@H](NC=O)C(C)C)C(=O)N[C@@H](C)C(=O)N[C@@H](C(=O)N[C@H](C(=O)N[C@@H](C(=O)N[C@@H](Cc1c[nH]c2ccccc12)C(=O)N[C@@H](C(=O)N[C@@H](Cc1c[nH]c2ccccc12)C(=O)N[C@H](CC(C)C)C(=O)N[C@@H](Cc1c[nH]c2ccccc12)C(=O)N[C@H](CC(C)C)C(=O)N[C@@H](Cc1c[nH]c2ccccc12)C(=O)NCCO)C(C)C)[C@H](C)O)C(C)C)C(C)C` [compound 2290] (For-VGA[dL]A[dV]V[dT]W[dV]W[dL]W[dL]W-NHCH2CH2OH), for which the viability in data set [1] came to 100%. For the same compound, the antibacterial activity result in data set [2] is reported as “-”. In data set [3], the “H+/Na+ transport activity normalized” value was determined as 1.14.

Regarding `CC(C)C[C@@H](NC(=O)[C@H](Cc1c[nH]c2ccccc12)NC(=O)[C@H](NC(=O)[C@H](Cc1c[nH]c2ccccc12)NC(=O)[C@@H](CC(C)C)NC(=O)[C@@H](NC(=O)[C@H](NC(=O)[C@H](C)NC(=O)[C@H](NC(=O)[C@H](C)NC(=O)CNC(=O)[C@@H](NC=O)C(C)C)C(C)C)C(C)C)C(C)C)[C@H](C)O)C(=O)N[C@@H](Cc1c[nH]c2ccccc12)C(=O)N[C@@H](C(=O)N[C@@H](Cc1c[nH]c2ccccc12)C(=O)NCCO)C(C)C` [compound 3161] (For-VGA[dV]A[dV]V[dL]W[dT]W[dL]W[dV]W-NHCH2CH2OH), in data set [1], the viability was 100%. Also, in data set [2], the antibacterial activity result was “-”. Moreover, the “H+/Na+ transport activity normalized” value in data set [3] is 1.00.

For the compound `CNC(=O)C[C@@H](NC(=O)[C@H](Cc1c[nH]c2ccccc12)NC(=O)[C@@H](CC(C)C)NC(=O)[C@@H](NC(=O)[C@@H](CC(C)C)NC(=O)[C@H](C)NC(=O)[C@H](NC(=O)[C@H](C)NC(=O)CNC(=O)[C@@H](NC=O)C(C)C)C(C)C)C(C)C)C(=O)N[C@@H](Cc1c[nH]c2ccccc12)C(=O)N[C@@H](C(=O)N[C@@H](Cc1c[nH]c2ccccc12)C(=O)N[C@@H](C(=O)N[C@@H](Cc1c[nH]c2ccccc12)C(=O)NCCO)C(C)C)C(C)C` [compound 1152] (For-VGA[dV]A[dL]V[dL]W[dD](NHMe)W[dV]W[dV]W-NHCH2CH2OH), the viability in data set [1] is 100%. Moreover, in data set [2], the antibacterial activity result is “-”. Besides, the “H+/Na+ transport activity normalized” value in data set [3] is on record as 1.05.
